These results are taken from patent US20230047905A1, “COMPOUNDS AND COMPOSITIONS FOR TREATING CONDITIONS ASSOCIATED WITH STING ACTIVITY” (IFM Due, Inc., priority 2018, published 2023).

SMILES strings stand for the structures.

The first assay relates to Human STING. Description: STING reporter assay (luciferase) in THP1-Dual KO-IFNAR2 cells activated with 2'3'cGAMP. The class given is cell-based. To be noted: 15 μM 2'3'cGAMP, 24h, class symbols. Here is the method:
STING Pathway Modulation by the Compounds Described Herein was Measured Using THP1-Dual™ Cells (KO-IFNAR2).
THP1-Dual™ KO-IFNAR2 Cells (obtained from invivogen) were maintained in RPMI, 10% FCS, 5 ml P/S, 2 mM L-glut, 10 mM Hepes, and 1 mM sodium pyruvate. Compounds were spotted in empty 384 well tissue culture plates (Greiner 781182) by Echo for a final concentration of 0.0017-100 μM. Cells were plated into the TC plates at […], 2×10E6 cells/mL. For activation with STING ligand, 2′3′cGAMP (MW 718.38, obtained from Invivogen), was prepared in Optimem media.
The following solutions were prepared for each 1×384 plate: • Solution A: 2 mL Optimem with one of the following stimuli: • 60 uL of 10 mM 2′3′cGAMP ->150 μM stock • Solution B: 2 mL Optimem with 60 μL Lipofectamine 2000->Incubate 5 min at RT
2 mL of solution A and 2 ml Solution B was mixed and incubated for 20 min at room temperature (RT). 20 μL of transfection solution (A+B) was added on top of the plated cells, with a final 2′3′cGAMP concentration of 15 μM. The plates were then centrifuged immediately at 340 g for 1 minute, after which they were incubated at 37° C., 5% CO2, >98% humidity for 24h. Luciferase reporter activity was then measured. EC50 values were calculated by using standard methods known in the art.
Luciferase reporter assay: 10 μL of supernatant from the assay was transferred to white 384-plate with flat bottom and squared wells. One pouch of QUANTI-Luc™ Plus was dissolved in 25 mL of water. 100 μL of QLC Stabilizer per 25 mL of QUANTI-Luc™ Plus solution was added. 50 μL of QUANTI-Luc™ Plus/QLC solution per well was then added. Luminescence was measured on a Platereader (e.g., Spectramax I3X (Molecular Devices GF3637001)).
Luciferase reporter activity was then measured. EC50 or IC50 values were calculated by using standard methods known in the art.
On the technique in general: In a reporter assay the amount or activity of a reporter protein is the signal.
Consider `NS(=O)(=Nc1c[nH]c2cc(F)c(F)cc12)c1ccc(C(F)(F)F)cc1` (racemic) [Compound 2a], for which the half-inhibitory concentration (IC50) lay within 0.2 to 1 µM.
In the case of `Cc1ccccc1S(N)(=O)=Nc1c[nH]c2ccccc12` (racemic) [Compound 110b], the IC50 fell in the range of 1 to 5 µM.
In the case of `Cc1ccc(S(N)(=O)=Nc2c[nH]c3ccccc23)cc1` (racemic) [Compound 111b], the half-maximal inhibitory concentration (IC50) lay in the range of 5 to 100 µM.
The same measure, in the same setting: the result for `Cc1ccc(S(N)(=O)=Nc2c[nH]c3ccccc23)cc1` (racemic) [Compound 111a] reads 1 to 5 µM; that for `Cc1ccccc1S(N)(=O)=Nc1c[nH]c2ccccc12` (racemic) [Compound 110a], 5 to 100 µM; that for `NS(=O)(=Nc1c[nH]c2cc(F)c(F)cc12)c1ccc(C(F)(F)F)cc1` (racemic) [Compound 2b], 1 to 5 µM.

Staying with this assay, now noted: Homo sapiens, THP1-Dual, 24 h, 15 μM 2'3'cGAMP, class symbols.
Turning to `CS(=O)(=O)n1cc(N=S(N)(=O)c2ccc(C(F)(F)F)cc2)c2ccccc21` (stereo not drawn) [Compound 104], the IC50 lay within 5 to 100 µM.
The same measure, in the same setting: the result for `CN(C)S(=O)(=Nc1c[nH]c2ccccc12)c1ccc(C(F)(F)F)cc1` (stereo not drawn) [Compound 36, N′-(1H-indol-3-yl)-N,N-dimethyl-4-(trifluoromethyl)benzenesulfonimidamide] reads 5 to 100 µM; that for `NS(=O)(=Nc1c[nH]c2ccccc12)c1ccc(C(F)(F)F)cc1` (stereo not drawn) [Compound 1, N′-(1H-indol-3-yl)-4-(trifluoromethyl)benzenesulfonimidamide], 0.2 to 1 µM.
`N#Cc1cnc2[nH]cc(N=S(N)(=O)c3ccc(C(F)(F)F)cc3)c2c1` (racemic) [Compound 114a] had an IC50 of 5 to 100 µM.
Same read-out and setting: under `CCCCc1ccc(S(N)(=O)=Nc2c[nH]nc2-c2ccccc2)cc1` (stereo not drawn) [Compound 113] stands 5 to 100 µM; under `Cc1ccccc1S(N)(=O)=Nc1c[nH]c2ccccc12` (stereo not drawn) [Compound 110], 5 to 100 µM; under `Cc1ccc(S(N)(=O)=Nc2c[nH]c3ccccc23)cc1` (stereo not drawn) [Compound 111], 5 to 100 µM.
On the same count and under the same terms, the result for `CC(C)OC(=O)NS(=O)(=Nc1c[nH]c2ccccc12)c1ccc(C(F)(F)F)cc1` (stereo not drawn) [Compound 102] reads 5 to 100 µM; that for `CNS(=O)(=Nc1cn(C)c2ccccc12)c1ccc(C(F)(F)F)cc1` (stereo not drawn) [Compound 105, N-methyl-N′-(1-methyl-1H-indol-3-yl)-4-(trifluoromethyl)benzenesulfonimidamide], 5 to 100 µM.
On the same count and under the same terms, under `CCCCc1ccc(S(N)(=O)=Nc2c[nH]nc2-c2ccccc2)cc1` (racemic) [Compound 113a] stands 5 to 100 µM; under `CCOC(=O)NS(=O)(=Nc1c[nH]c2ccccc12)c1ccc(C(F)(F)F)cc1` (stereo not drawn) [Compound 103], 5 to 100 µM.
The compound `N#Cc1ccc2[nH]cc(N=S(N)(=O)c3ccc(C4CC4)cc3)c2c1` (stereo not drawn) [Compound 115] showed an IC50 of 5 to 100 µM.
Same read-out and setting: under `N[S@@](=O)(=Nc1c[nH]c2ccccc12)c1ccc(C(F)(F)F)cc1` (single isomer, unassigned) [Compound 1b, (R or S)—N-(1H-indol-3-yl)-4-(trifluoromethyl)benzenesulfonimidamide] stands 0.2 to 1 µM; under `Cc1cccc(S(N)(=O)=Nc2c[nH]c3ccccc23)c1` (stereo not drawn) [Compound 106], 5 to 100 µM.
On the same count and under the same terms, under `N[S@](=O)(=Nc1c[nH]c2ccccc12)c1ccc(C(F)(F)F)cc1` (single isomer, unassigned) [Compound 1a, (S or R)—N-(1H-indol-3-yl)-4-(trifluoromethyl)benzenesulfonimidamide] stands 1 to 5 µM.
The same measure, in the same setting: the result for `NS(=O)(=Nc1c[nH]c2ccccc12)c1ccc(F)cc1` (racemic) [Compound 108a] reads 5 to 100 µM.
As for `CCCCc1ccc(S(N)(=O)=Nc2c[nH]c3ncc(F)cc23)cc1` (racemic) [Compound 116], the IC50 is 5 to 100 µM.
Consider `CNS(=O)(=Nc1c[nH]c2ccccc12)c1ccc(C(F)(F)F)cc1` (stereo not drawn) [Compound 112, N′-(1H-indol-3-yl)-N-methyl-4-(trifluoromethyl)benzenesulfonimidamide], for which the IC50 lay within 5 to 100 µM.
In turn, `N#Cc1ccc2[nH]cc(N=S(N)(=O)c3ccc(C4CC4)cc3)c2c1` (racemic) [Compound 115a] returned an IC50 of 5 to 100 µM.
Take `CCCCc1ccc(S(=N)(=O)Nc2ccc3[nH]ccc3c2)cc1` (stereo not drawn) [Compound 53]: the IC50 was 5 to 100 µM.
Consider `N#Cc1ccc2[nH]cc(N=S(N)(=O)c3ccc(C(F)(F)F)cc3)c2c1` (racemic) [Compound 5a], for which the IC50 was 5 to 100 µM.
Regarding `NS(=O)(=Nc1c[nH]c2cc(F)c(F)cc12)c1ccc(C(F)(F)F)cc1` (stereo not drawn) [Compound 2], the IC50 fell in the range of 1 to 5 µM.
On the same count and under the same terms, under `CCCCc1ccc(S(=N)(=O)Nc2ccc3cc[nH]c3c2)cc1` (stereo not drawn) [Compound 101] stands 5 to 100 µM; under `NS(=O)(=Nc1c[nH]c2ncc(F)cc12)c1ccc(C(F)(F)F)cc1` (racemic) [Compound 117a], 5 to 100 µM; under `NS(=O)(=Nc1c[nH]c2ccccc12)c1ccc(F)cc1` (stereo not drawn) [Compound 108], 5 to 100 µM.
As to `NS(=O)(=Nc1c[nH]c2ncc(F)cc12)c1ccc(C(F)(F)F)cc1` (stereo not drawn) [Compound 117], the IC50 lay within 5 to 100 µM.
Same read-out and setting: the result for `N#Cc1cnc2[nH]cc(N=S(N)(=O)c3ccc(C(F)(F)F)cc3)c2c1` (stereo not drawn) [Compound 114] reads 5 to 100 µM; that for `COC(=O)NS(=O)(=Nc1c[nH]c2ccccc12)c1ccc(C(F)(F)F)cc1` (stereo not drawn) [Compound 107, methyl (N-(1H-indol-3-yl)-4-(trifluoromethyl)phenylsulfonimidoyl)carbamate], 5 to 100 µM; that for `NS(=O)(=Nc1c[nH]c2ccccc12)c1ccc(Cl)cc1` (stereo not drawn) [Compound 109], 1 to 5 µM.
Take `NS(=O)(=Nc1c[nH]c2ccccc12)c1ccc(Cl)cc1` (racemic) [Compound 109a]: the IC50 lay in the range of 1 to 5 µM.

The same assay, now with this note: Homo sapiens, THP1-Dual, 24 h, 15 μM 2'3'cGAMP, given as numeric bound.
Take `NS(=O)(=Nc1c[nH]nc1-c1ccccc1)c1ccc(C(F)(F)F)cc1` (racemic) [Compound 119a]: the IC50 was ≥ 100 µM.
Still for that read-out and setting: the result for `NS(=O)(=Nc1c[nH]nc1-c1ccccc1)c1ccc(C(F)(F)F)cc1` (stereo not drawn) [Compound 119] reads ≥ 100 µM; that for `N#Cc1cnc2[nH]cc(N=S(N)(=O)c3ccc(C(F)(F)F)cc3)c2c1` (racemic) [Compound 114b], ≥ 100 µM.

Broadly, the IC50 is the concentration that gives 50% inhibition. A higher IC50 goes with weaker potency.
